Test results: US11253532B2, “Composition for promoting increase in androgen” (Kobayashi Pharmaceutical Co., Ltd., priority 2016, dated 2022)

Test system: cells of testes collected from mice (primary culture)
Experiment: Test Example 1: testosterone secretion from primary culture of mouse testes cells, measured by EIA
Type: cell-based, mice (ddY strain)
Settings: 2-hour culture
Experimental: 2 mL of 50% ethanol was added to 4 mg/vial of compound K (trade name: Ginsenoside CK, 0150S, Extrasynthese S.A.) to dissolve compound K, and the obtained solution was suitably diluted with a DME/F-12 medium (Nacalai Tesque) containing 0.1% bovine serum albumin (BSA) (“0.1% BSA-DME/F-12”) to prepare a sample.
Testes were collected from mice (ddY strain, male, 7 to 8 weeks old), and subjected to primary culture. Specifically, testes were subjected to collagenase treatment (Worthington, Type 2, 0.05%, 37° C., 15 minutes) to disperse cells, and adjusted to 3×10^5 cells/0.5 mL in a DME/F-12 medium containing 10% fetal bovine serum (FBS). The cells were then seeded into a 24-well plate, and cultured overnight. After culture, the cells were washed with PBS(−) (Dulbecco's PBS (0.2 g/L of potassium chloride, 0.2 g/L of monopotassium phosphate, 8 g/L of sodium chloride, 1.15 g/L of anhydrous disodium phosphate, pH of 7.4, an isotonic solution, ion content: (mEq)Na^+ 148, K^+ 4, Cl^− 139)). The prepared sample was then added to the cells to give a volume of 1/10, together with a 0.1% BSA-DME/F-12 medium, and the concentration of compound K in the wells was adjusted to 1 μg/mL, 10 μg/mL, and 100 μg/mL.
A mixture solution of 50% ethanol and 0.1% BSA-DME/F-12 was prepared in place of the sample in the same manner as above, except that compound K was not added; this mixture was added to the cells to give a volume of 1/10 as above, thereby preparing a control (the concentration of compound K: 0 μg/mL).
After 2-hour culture, the medium was collected, and the testosterone levels in the mediums were measured by enzyme immunoassay (EIA).
Specifically, a goat anti-rabbit IgG antibody (2 μg/well) was added to a 96-well microplate (Nunc, Denmark), and the plate was coated at room temperature for 1 hour. After washing, a blocking agent (0.14M NaCl, 0.02% thimerosal, 1% BSA, 0.01M phosphate buffer, pH of 7.4) was added thereto to perform blocking at room temperature for 15 minutes. […] The absorbance at 490 nm was measured with a microplate reader to determine the testosterone secretion level.

## CC(C)=CCC[C@](C)(O[C@@H]1O[C@H](CO)[C@@H](O)[C@H](O)[C@H]1O)[C@H]1CC[C@]2(C)[C@@H]1[C@H](O)C[C@@H]1[C@@]3(C)CC[C@H](O)C(C)(C)[C@@H]3CC[C@]12C [compound K, 20(S)-protopanaxadiol 20-O-β-d-glucopyranoside (M1)]
Compound K 1 μg/mL, not shown in FIG. 1
  testosterone level in a medium: increased testosterone level
Compound K 10 μg/mL, versus medium free from compound K (0 μg/mL), FIG. 1
  testosterone level in a medium: higher
Compound K 100 μg/mL, versus medium free from compound K (0 μg/mL), FIG. 1
  testosterone level in a medium: higher
